Laboratory results from ChEMBL document CHEMBL3272170, “Potential antitumor agents. 24. Dicationic analogues of the 4'-(9-acridinylamino)alkanesulfonanilides” (J Med Chem, 1977).

Experiments:
in vivo [1] = details: C3H X DBA2 F1, mouse, ip
Description: Toxicity in ip dosed C3H X DBA2 F1 mouse allografted with mouse L1210 cells through ip

in vivo [2] = details: C3H X DBA2 F1, mouse, ip; remark: listed apart in the source
Description: Toxicity in ip dosed C3H X DBA2 F1 mouse allografted with mouse L1210 cells through sc

Description for physchem: Ionization constant, pKa of the compound by UV spectrophotometric analysis

| pKa (physchem) | SMILES | MTD (in vivo [1]) [mg/kg/day] | MTD (in vivo [2]) [mg/kg/day] |
| --- | --- | --- | --- |
| 5.34 | N=C(N)NCCCS(=O)(=O)Nc1ccc(Nc2c3ccccc3nc3cc([N+](=O)[O-])ccc23)cc1 | – | – |
| 10.1 | C[n+]1c2ccccc2c(Nc2ccc(NS(C)(=O)=O)cc2)c2ccc(N)cc21 | – | – |
| 6.89 | NCCCS(=O)(=O)Nc1ccc(Nc2c3ccccc3nc3ccccc23)cc1 | – | – |
| 6.91 | NCCCCS(=O)(=O)Nc1ccc(Nc2c3ccccc3nc3ccccc23)cc1 | – | – |
| 5.25 | NCCS(=O)(=O)Nc1ccc(Nc2c3ccccc3nc3cc([N+](=O)[O-])ccc23)cc1 | – | – |
| 5.34 | NCCCCS(=O)(=O)Nc1ccc(Nc2c3ccccc3nc3cc([N+](=O)[O-])ccc23)cc1 | – | – |
| 5.36 | NCCCCCCCS(=O)(=O)Nc1ccc(Nc2c3ccccc3nc3cc([N+](=O)[O-])ccc23)cc1 | – | – |
| 5.58 | COc1cc(NS(=O)(=O)CCCCN)ccc1Nc1c2ccccc2nc2cc([N+](=O)[O-])ccc12 | – | – |
| 7.16 | CC(=O)Nc1ccc2c(Nc3ccc(NS(=O)(=O)CCCCN)cc3)c3ccccc3nc2c1 | – | – |
| 6.72 | C[n+]1c2ccccc2c(Nc2ccc(NS(=O)(=O)CCCCN)cc2)c2ccccc21 | – | – |
| 5.52 | Cc1ccc2c(Nc3ccc(NS(=O)(=O)CCCCN)cc3)c3ccc([N+](=O)[O-])cc3nc2c1C | – | – |
| 6.9 | NCC(=O)NCCS(=O)(=O)Nc1ccc(Nc2c3ccccc3nc3ccccc23)cc1 | – | – |
| 6.91 | NCCC(=O)NCCS(=O)(=O)Nc1ccc(Nc2c3ccccc3nc3ccccc23)cc1 | – | – |
| 6.7 | C[n+]1c2ccccc2c(Nc2ccc(NS(=O)(=O)CCNC(=O)CCN)cc2)c2ccccc21 | – | – |
| 5.34 | NCC(=O)NCCS(=O)(=O)Nc1ccc(Nc2c3ccccc3nc3cc([N+](=O)[O-])ccc23)cc1 | – | – |
| 5.35 | NCCC(=O)NCCS(=O)(=O)Nc1ccc(Nc2c3ccccc3nc3cc([N+](=O)[O-])ccc23)cc1 | – | – |
| 5.26 | N=C(N)NCCS(=O)(=O)Nc1ccc(Nc2c3ccccc3nc3cc([N+](=O)[O-])ccc23)cc1 | – | – |
| 5.36 | N=C(N)NCCCCS(=O)(=O)Nc1ccc(Nc2c3ccccc3nc3cc([N+](=O)[O-])ccc23)cc1 | – | – |
| 5.36 | N=C(N)NCCCCCS(=O)(=O)Nc1ccc(Nc2c3ccccc3nc3cc([N+](=O)[O-])ccc23)cc1 | – | – |
| 5.35 | N=C(N)NCCCCCCS(=O)(=O)Nc1ccc(Nc2c3ccccc3nc3cc([N+](=O)[O-])ccc23)cc1 | – | – |
| 6.41 | Cc1cccc2c(Nc3ccc(NS(=O)(=O)CCCCNC(=N)N)cc3)c3cccc(C)c3nc12 | – | – |
| 5.55 | CC(=O)Nc1ccc2c(Nc3ccc(NS(=O)(=O)CCNC(=N)N)cc3)c3ccc([N+](=O)[O-])cc3nc2c1 | – | – |
| 5.58 | CC(=O)Nc1ccc2c(Nc3ccc(NS(=O)(=O)CCCNC(=N)N)cc3)c3ccc([N+](=O)[O-])cc3nc2c1 | – | – |
| 3.68 | N=C(N)NCCCS(=O)(=O)Nc1ccc(Nc2c3ccc([N+](=O)[O-])cc3nc3cc([N+](=O)[O-])ccc23)cc1 | – | – |
| 7.19 | CS(=O)(=O)Nc1ccc(Nc2c3ccccc3nc3ccccc23)cc1 | – | – |
| 9.6 | Nc1c2ccccc2nc2ccccc12 [AMINACRINE] | – | – |

| SMILES | pKa (physchem) | MTD (in vivo [1]) [mg/kg/day] | MTD (in vivo [2]) [mg/kg/day] |
| --- | --- | --- | --- |
| Cl.NCCS(=O)(=O)Nc1ccc(Nc2c3ccccc3nc3ccccc23)cc1 | 6.62 | 35 | – |
| Cl.NCCCCCS(=O)(=O)Nc1ccc(Nc2c3ccccc3nc3ccccc23)cc1 | 6.92 | 60 | – |
| Cl.NCCCCCCS(=O)(=O)Nc1ccc(Nc2c3ccccc3nc3ccccc23)cc1 | 6.92 | 65 | – |
| Cl.NCCCS(=O)(=O)Nc1ccc(Nc2c3ccccc3nc3cc([N+](=O)[O-])ccc23)cc1 | 5.33 | – | 20 |
| Cl.NCCCCCS(=O)(=O)Nc1ccc(Nc2c3ccccc3nc3cc([N+](=O)[O-])ccc23)cc1 | 5.36 | – | 44 |
| Cl.NCCCCCCS(=O)(=O)Nc1ccc(Nc2c3ccccc3nc3cc([N+](=O)[O-])ccc23)cc1 | 5.34 | – | 2 |
| Cl.NCCCCCCCCS(=O)(=O)Nc1ccc(Nc2c3ccccc3nc3cc([N+](=O)[O-])ccc23)cc1 | 5.35 | 30 | – |
| CN(C)CCCCS(=O)(=O)Nc1ccc(Nc2c3ccccc3nc3cc([N+](=O)[O-])ccc23)cc1.Cl | 5.36 | – | 10 |
| Cc1cccc2c(Nc3ccc(NS(=O)(=O)CCCCN)cc3)c3ccc([N+](=O)[O-])cc3nc12.Cl | 5.44 | 200 | – |
| Cl.N=C(N)NCCCCS(=O)(=O)Nc1ccc(Nc2c3ccccc3nc3ccccc23)cc1 | 6.91 | 75 | – |
| Cl.N=C(N)NCCCCS(=O)(=O)Nc1ccc(Nc2c3ccccc3nc3cc(Cl)ccc23)cc1 | 6.33 | 150 | – |
| C[n+]1c2ccccc2c(Nc2ccc(NS(=O)(=O)CCCCNC(=N)N)cc2)c2ccccc21.[Br-] | 6.69 | 150 | – |
